Data on 21 molecules can be found in PubChem BioAssay AID328 (DTP/NCI, 2004).

This assay relates to BDF1 mice, P388 leukemia ip, median survival T/C. As to the kind of experiment: NCI In Vivo Anticancer Drug Screen. Data for tumor model P388 Leukemia (intraperitoneal) in B6D2F1 (BDF1) mice. As to conditions: endpoint: median survival time, higher = longer survival. In a few lines: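 Transplantable tumour in mice; compound vs vehicle dosing; survival scored; ratio of treated to control reported.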

Where [1] appears, read: dose: 100.0 mg/kg/injection, schedule: Q01DX009 (ip), vehicle: Klucel (hydroxypropylcellulose) (HPC).
[2] abbreviates: dose: 100.0 mg/kg/injection, schedule: Q04DX003 (ip), vehicle: Klucel (hydroxypropylcellulose) (HPC).
Where [3] appears, read: dose: 200.0 mg/kg/injection, schedule: Q01DX009 (ip), vehicle: Klucel (hydroxypropylcellulose) (HPC).
Setting [4] is: dose: 200.0 mg/kg/injection, schedule: Q04DX003 (ip), vehicle: Klucel (hydroxypropylcellulose) (HPC).
Setting [5] is: dose: 400.0 mg/kg/injection, schedule: Q04DX003 (ip), vehicle: Klucel (hydroxypropylcellulose) (HPC).
The mark [6] stands for this setting: dose: 50.0 mg/kg/injection, schedule: Q01DX009 (ip), vehicle: saline with Tween-80.
Where [7] appears, read: dose: 100.0 mg/kg/injection, schedule: Q01DX009 (ip), vehicle: saline with Tween-80.
[8] abbreviates: dose: 200.0 mg/kg/injection, schedule: Q01DX009 (ip), vehicle: saline with Tween-80.
[9] abbreviates: dose: 50.0 mg/kg/injection, schedule: Q01DX009 (ip), vehicle: Klucel (hydroxypropylcellulose) (HPC).
Setting [10] is: dose: 100.0 mg/kg/injection, schedule: Q04DX003 (ip), vehicle: saline with Tween-80.
[11] abbreviates: dose: 200.0 mg/kg/injection, schedule: Q04DX003 (ip), vehicle: saline with Tween-80.
[12] abbreviates: dose: 400.0 mg/kg/injection, schedule: Q01DX009 (ip), vehicle: saline with Tween-80.

Values joined by “and” are separate entries in the source; they are usually repeats but may differ in a detail not shown here. Equal values may be shown once. Inconclusive results and toxic doses are left out.

For the molecule `O=C(Nc1nncs1)c1cccs1`, the T/C was 109 % of control (dose: 50.0 mg/kg/injection, schedule: Q04DX002 (ip), vehicle: saline with Tween-80); 93 % of control (dose: 100.0 mg/kg/injection, schedule: Q04DX002 (ip), vehicle: saline with Tween-80); 190 % of control (dose: 600.0 mg/kg/injection, schedule: Q04DX002 (ip), vehicle: saline with Tween-80).
Consider `O=C1c2ccccc2S(=O)(=O)N1CCN1C(=O)c2ccccc2S1(=O)=O`, for which the T/C reads like this: under setting [1], 100 % of control; under setting [2], 95 % of control; under setting [3], 100 % of control; under setting [4], 100 % of control; (dose: 400.0 mg/kg/injection, schedule: Q01DX009 (ip), vehicle: Klucel (hydroxypropylcellulose) (HPC)) 90 % of control; under setting [5], 100 % of control.
With `CCCCCCCCCCCCCCCCCCSc1ccccc1`, the T/C was 110 % of control (dose: 6.25 mg/kg/injection, schedule: Q04DX003 (ip), vehicle: saline sonified); 100 % of control (dose: 12.5 mg/kg/injection, schedule: Q04DX003 (ip), vehicle: saline sonified); 110 % of control (dose: 25.0 mg/kg/injection, schedule: Q04DX003 (ip), vehicle: saline sonified).
With `O=[N+]([O-])c1cc([N+](=O)[O-])c(Br)cc1Cl`, the T/C by setting is: (dose: 5.0 mg/kg/injection, schedule: Q01DX009 (ip), vehicle: Klucel (hydroxypropylcellulose) (HPC)) 101 % of control; (dose: 10.0 mg/kg/injection, schedule: Q01DX009 (ip), vehicle: Klucel (hydroxypropylcellulose) (HPC)) 110 % of control; (dose: 20.0 mg/kg/injection, schedule: Q01DX009 (ip), vehicle: Klucel (hydroxypropylcellulose) (HPC)) 112 % of control.
In the case of `CCCCCCCCCCCCCCCCOCCCCCCCCCCCCCCCC`, the T/C reads like this: (dose: 100.0 mg/kg/injection, schedule: Q01DX009 (ip), vehicle: other) 86 % of control; (dose: 100.0 mg/kg/injection, schedule: Q04DX003 (ip), vehicle: other) 91 % of control; (dose: 200.0 mg/kg/injection, schedule: Q01DX009 (ip), vehicle: other) 86 % of control; (dose: 200.0 mg/kg/injection, schedule: Q04DX003 (ip), vehicle: other) 91 % of control.
As for `CN(C)CC(C(=O)Cc1ccccc1)c1ccccc1` (stereo unspecified), the T/C was 102 % of control under setting [6] and 111 % of control under setting [7].
As to `CC(C)(C)OC(=O)NC(CCC(=O)O)(Cc1ccccc1)C(=O)NC(CCC(=O)O)(Cc1ccccc1)C(=O)OCc1ccccc1` (stereo unspecified), for the setting “dose: 200.0 mg/kg/injection, schedule: Q01DX005 (ip), vehicle: saline with Tween-80”, the T/C is 90 % of control.
`CC(C)OC(=O)c1ccc(C(C)C)cc1`: the T/C by setting is: under setting [7], 110 % of control; under setting [8], 117 % of control.
Consider `O=C(NCCCl)Nc1cccc2cc3ccccc3cc12`, for which the T/C is, setting by setting: under setting [2], 100 % of control; under setting [4], 95 % of control; under setting [5], 90 % of control.
`CCCCN(CCCC)P(=O)(N1CC1)N1CC1`: the T/C is, setting by setting: (dose: 16.5 mg/kg/injection, schedule: Q01DX009 (ip), vehicle: saline) 250 % of control; (dose: 25.0 mg/kg/injection, schedule: Q01DX009 (ip), vehicle: saline) 118 % of control; (dose: 37.5 mg/kg/injection, schedule: Q01DX009 (ip), vehicle: saline) 113 % of control.
Regarding `CCOC(=O)C1C(=O)C2CCc3c(ccc4ccccc34)N2C1=O` (stereo unspecified), the T/C is, setting by setting: under setting [9], 100 % of control; (dose: 50.0 mg/kg/injection, schedule: Q04DX003 (ip), vehicle: Klucel (hydroxypropylcellulose) (HPC)) 95 % of control; under setting [1], 110 % of control; under setting [2], 95 % of control; under setting [3], 100 % of control; under setting [4], 100 % of control.
As to `COC(=O)C1=COC2OC3C(C(C)O)C(=O)OC34C=CC1C24` (stereo unspecified), the T/C (dose: 0.04 mg/kg/injection, schedule: Q01DX009 (ip), vehicle: saline + alcohol) was 90 % of control; the T/C (dose: 0.2 mg/kg/injection, schedule: Q01DX009 (ip), vehicle: saline + alcohol) is 95 % of control; the T/C (dose: 1.0 mg/kg/injection, schedule: Q01DX009 (ip), vehicle: saline + alcohol) was 118 % of control; the T/C (dose: 5.0 mg/kg/injection, schedule: Q01DX009 (ip), vehicle: saline + alcohol) was 118 % of control.
For the molecule `Cc1ccc(C(=O)C2CC2)cc1C`, the T/C reads like this: (dose: 33.0 mg/kg/injection, schedule: Q01DX009 (ip), vehicle: saline with Tween-80) 96 % of control; under setting [6], 103 % of control; (dose: 50.0 mg/kg/injection, schedule: Q04DX003 (ip), vehicle: saline with Tween-80) 104 % of control; (dose: 75.0 mg/kg/injection, schedule: Q01DX009 (ip), vehicle: saline with Tween-80) 111 % of control; under setting [10], 112 % of control; under setting [8], 120 % of control. Moreover, under setting [11], the T/C was 112 % of control.
On to `CC12CCC(C1)C(C)(C)C2NCCCN1C(=O)c2ccc3c4c(ccc(c24)C1=O)C(=O)N(CCCNC1C2(C)CCC(C2)C1(C)C)C3=O` (stereo unspecified), for which the T/C was 105 % of control (dose: 6.25 mg/kg/injection, schedule: Q01DX009 (ip), vehicle: Klucel (hydroxypropylcellulose) (HPC)); 100 % of control (dose: 12.5 mg/kg/injection, schedule: Q01DX009 (ip), vehicle: Klucel (hydroxypropylcellulose) (HPC)); 115 % of control and 116 % of control (dose: 25.0 mg/kg/injection, schedule: Q01DX009 (ip), vehicle: Klucel (hydroxypropylcellulose) (HPC)).
For the molecule `O=C1COc2ccccc2N1`, the T/C is, setting by setting: (dose: 100.0 mg/kg/injection, schedule: Q01DX001 (ip), vehicle: Klucel (hydroxypropylcellulose) (HPC)) 113 % of control; (dose: 200.0 mg/kg/injection, schedule: Q01DX001 (ip), vehicle: Klucel (hydroxypropylcellulose) (HPC)) 100 % of control.
In the case of `CC1=C(Cc2ccccc2)C(C)(C)CCC1`, the T/C reads like this: under setting [6], 103 % of control; under setting [7], 112 % of control; under setting [8], 121 % of control.
For `O=C1CCCCC1N1CCCCC1` (stereo unspecified), the T/C (dose: 50.0 mg/kg/injection, schedule: Q01DX005 (ip), vehicle: saline with Tween-80) is 98 % of control and the T/C (dose: 100.0 mg/kg/injection, schedule: Q01DX005 (ip), vehicle: saline with Tween-80) is 105 % of control.
With `Nc1ccccc1-n1nc2ccc3ccccc3c2n1`, the T/C under setting [7] is 105 % of control; the T/C (dose: 132.0 mg/kg/injection, schedule: Q01DX009 (ip), vehicle: saline with Tween-80) was 90 % of control; the T/C under setting [8] is 100 % of control; the T/C (dose: 300.0 mg/kg/injection, schedule: Q01DX009 (ip), vehicle: saline with Tween-80) was 95 % of control; the T/C under setting [12] is 105 % of control.
On to `O=C(NNc1ccc([N+](=O)[O-])cc1)c1ccccc1`, for which the T/C was 100 % of control under setting [9]; 90 % of control under setting [1]; 115 % of control under setting [2]; 100 % of control under setting [3]; 100 % of control under setting [4]; 95 % of control under setting [5].
Turning to `CCOC(=O)C(=O)C1CCCC1=O` (stereo unspecified), the T/C was 92 % of control under setting [7]; 95 % of control under setting [10]; 89 % of control under setting [8]; 109 % of control under setting [11]; 92 % of control under setting [12]; 100 % of control (dose: 400.0 mg/kg/injection, schedule: Q04DX003 (ip), vehicle: saline with Tween-80).
Take `CC1=C(C)CC2C(=O)C=CC(=O)C2C1` (stereo unspecified): the T/C is, setting by setting: (dose: 12.5 mg/kg/injection, schedule: Q01DX009 (ip), vehicle: water) 95 % of control; (dose: 25.0 mg/kg/injection, schedule: Q01DX009 (ip), vehicle: water) 90 % of control; (dose: 25.0 mg/kg/injection, schedule: Q04DX003 (ip), vehicle: water) 113 % of control; (dose: 50.0 mg/kg/injection, schedule: Q01DX009 (ip), vehicle: water) 93 % of control; (dose: 50.0 mg/kg/injection, schedule: Q04DX003 (ip), vehicle: water) 113 % of control; (dose: 100.0 mg/kg/injection, schedule: Q01DX009 (ip), vehicle: water) 100 % of control. The T/C (dose: 100.0 mg/kg/injection, schedule: Q04DX003 (ip), vehicle: water) is 105 % of control and 112 % of control.
